Laboratory results as given in patent publication US10004723B2, “Aromatase inhibitor-releasing intravaginal device” (University of Saskatchewan, priority 2013, dated 2018).
Marks after values point to notes of the source that are not given here.

Assays:
bovine granulosa cells = test: Inhibition of estradiol production in bovine granulosa cell culture; assay type: cell-based; settings: for concentration of estradiol compared with negative control (no FSH stimulation): letrozole 20 and 2 ng/mL, anastrozole 200 and 20 ng/mL, FSH-stimulated cells
Experimental: Inhibition of estradiol production by two aromatase inhibitors (letrozole and anastrozole) and a benzimidazole (fenbendazole) was tested in vitro using a bovine granulosa cell culture.
The granulosa cell culture protocol has been described previously (Zamberlam, Portela et al., 2011). Briefly, bovine ovaries were obtained at a local abattoir and transported to the lab where granulosa cells of antral follicles were collected by rinsing the follicle wall with Dulbecco's Modified Eagle Medium Nutrient Mixture F-12 (DMEMIF12, Invitrogen Life Technologies, Burlington, ON, Canada). Granullosa cells were maintained in culture for 6 days at 37° C. in 5% CO2, in 700 uL of culture medium (Zamberlam, Portela et al., 2011) which was replaced every 2 days. Cells were maintained in culture from Days 0 to 2, followed by the addition of 1 ng/mL of FSH from Days 2 to 4. On Day 4, depending on the treatment group, the culture medium was supplemented with 1 ng/mL FSH plus the estrogen inhibitor of interest, with FSH alone (positive control) or no FSH (negative control). On Day 6, the culture medium was collected and total protein was measured by the Bradford method (Bio-Rad, Mississauga, ON, Canada). Estradiol levels were determined by radioimmunoassay and expressed as total pg of estradiol per ug of protein.
Three different levels of each compound were tested. The standard concentration used for letrozole was 20 ng/mL. […] The standard dose of fenbendazole was based on a reported maximum concentration 160 ng/mL fenbendazole in plasma after a single oral administration of 7.5 mg/kg of body weight in cattle (Sanyal, 1994). Low and high doses of each aromatase inhibitor were arbitrarily set at standard concentration× 1/10 and standard concentration×10, respectively (Table 1).

[1] = single oral administration of 7.5 mg/kg of body weight in cattle (Sanyal, 1994); cited from earlier work
[2] = tested on: MCF-7 cancer cell preparations; test: Reported IC50 in MCF-7 cancer cell preparations; design: species or system human; settings: based on the reported IC50 values
[3] = tested on: MCF-7 cancer cell preparations; settings: reported (Kudoh 1996; Bhatnagar 2007), read-out: half maximal inhibitory concentration (IC50); cited from earlier work
ovulation [4] = test: Induction of ovulation in women; assay type: in vivo, human; settings: women treated at 18 mm follicle diameter
ovulation [5] = test: Inhibition of ovulation in cattle; assay type: in vivo; settings: treatment during the pre-ovulatory wave in cattle
[6] = tested on: ovarian function in heifers; test: Example III: ovarian function and ovulation synchrony after letrozole device plus PGF and GnRH in heifers; assay type: in vivo, cattle; design: Degree of synchrony (residuals of the interval from GnRH to ovulation): unit not given here; settings: for Dominant follicle diameter (mm) at day before ovulation: GnRH 24 h later, mean ± SEM; for Ovulation failure / Ovulation in relation to GnRH: Before / Ovulation in relation to GnRH: Synchronized: number of heifers
Source text: (§1) Heifers were examined daily by transrectal ultrasonography to determined the interval to ovulation, which served as control data for comparison with the synchronizing effect of subsequent aromatase inhibitor treatment in the same animals. One heifer was excluded for further use due to aggressive behaviour and handling difficulty. At the time of ovulation (Day 0), heifers were assigned randomly to five groups (n=8-10/group) and given an intravaginal device with a wax-based plus gel coat formulation containing 3 g of letrozole (as described in Example 1) for 4 days starting on Day 0, 4, 8, 12, or 16. At the time of device removal, heifers were given 500 μg PGF followed by 100 μg of GnRH 24 h later (FIG. 10).
Ultrasound examinations were performed daily from two days before device insertion to 9 days after post-treatment ovulation. Observations from ultrasound examinations were recorded on a sketch sheet in which each ovary and its structures (CL and follicles a 4 mm in diameter) were represented by size and location. Ovulation was defined as the disappearance of a […] between successive examinations after GnRH treatment, and was confirmed by the subsequent detection of a CL [20]. The time of follicular wave emergence was defined as the day of ovulation, or retrospectively as the day when the dominant follicle was first identified at a diameter of 4 to 5 mm. If the dominant follicle was not identified until it reached 6 or 7 mm, the previous day was considered day of wave emergence. The dominant follicle of a wave was defined as the largest antral follicle of the wave. The day of onset of follicular and luteal regression was defined as the first day of an apparent progressive decrease in follicular and luteal diameters, respectively.
Statistical analyses were done using the Statistical Analysis System software package (SAS Learning Edition 9.1, 2006; SAS Institute Inc., Cary, N.C., USA). Time-series hormone data and follicular diameter profiles were analyzed by analysis of variance for repeated measures using the PROC MIXED procedure to determine the effects of day of treatment (0, 4, 8, 12, and 16), time, and their interactions. Individual time-point comparisons among groups were compared using the least significant difference (LSD) test. Single-point measurements (dominant follicle diameter at device insertion, pre-ovulatory follicle diameter, CL diameter 9 days after the post-treatment ovulation and interval from GnRH treatment to ovulation) were analyzed by one-way analysis of variance. The proportion of heifers that ovulated were compared by Chi-Square test. The degree of synchrony among groups was compared by analysis of variance of the residuals of the interval from GnRH to ovulation. Significance was defined as P≤0.05.

plasma estradiol = test: Example III: plasma estradiol at device removal in heifers; assay type: in vivo, cattle
Source text: as §1, with “One heifer was excluded for further use due to aggressive behaviour and handling difficulty.” left out
Blood samples were collected by coccygeal venipuncture into 10 mL heparinized vacuum tubes (Becton Dickinson Vacutainer Systems, Franklin Lakes, N.J., USA). Samples were collected at the time of device removal for estradiol measurement, and at 3, 6 and 9 days following the post-treatment ovulation to determine progesterone concentrations: Additionally, blood samples were collected on Days 4, 8, 12, and 16 from heifers included in Group 16 (Day 0=ovulation) to serve as control data for comparison of estradiol concentrations at the time of device removal in other treatment groups (Groups 0, 4, 8, and 12). […] Blood samples were centrifuged at 1500×g for 20 min and plasma was separated and stored in plastic tubes at −20° C. until assayed.
Plasma concentrations of estradiol were determined using a commercial radioimmunoassay kit (Double Antibody Estradiol; Diagnostic Products, Los Angeles, Calif., USA). The procedure was carried out in the Department of Animal Health and Biomedical Sciences, University of Wisconsin-Madison, as described, with the following modifications: Standards (0.78-100 pg/mL) were prepared in steroid-free (charcoal-treated) bovine plasma. The standards (250 μL in duplicate) and plasma samples (500 μL in duplicate) were extracted with 3 mL of diethyl ether, frozen in a dry-ice/methanol bath, decanted into assay tubes, and dried overnight under a fume hood. The dried samples and standards were re-suspended with 100 μL of assay buffer (0.1% gelatin in PBS).

[7] = letrozole groups combined, letrozole device added to PGF-GnRH protocol

COC(=O)Nc1nc2ccc(Sc3ccccc3)cc2[nH]1 [Fenbendazole, fenbendazole]
reduction of estradiol secretion by FSH-stimulated granulosa cells (bovine granulosa cells; at the levels tested): did not reduce estradiol secretion significantly | maximum concentration in plasma [1]: 160 ng/mL

N#Cc1ccc(C(c2ccc(C#N)cc2)n2cncn2)cc1 [Letrozole, letrozole]
dose at which estradiol synthesis was reduced to that of non-FSH-stimulated cells (bovine granulosa cells): 20 ng/mL | concentration of estradiol compared with negative control (no FSH stimulation) (bovine granulosa cells): did not differ from that of the negative control | potency relative to anastrozole [2]: approximately 11 times | IC50 [3]: 0.07 nM | ovulation earlier than controls (ovulation [4]): 24 h | delay of ovulation (ovulation [5]): 24 h | Dominant follicle diameter (mm) at day before ovulation ([6]; 3 g letrozole device 4 days from Day 0, PGF at removal): 12.8 ± 0.58^a mm | Dominant follicle diameter (mm) at day before ovulation ([6]; 3 g letrozole device 4 days from Day 4, PGF at removal): 16.4 ± 0.78^b mm | Dominant follicle diameter (mm) at day before ovulation ([6]; 3 g letrozole device 4 days from Day 8, PGF at removal): 14.5 ± 0.83^ab mm | Dominant follicle diameter (mm) at day before ovulation ([6]; 3 g letrozole device 4 days from Day 12, PGF at removal): 14.2 ± 0.48^ab mm | Dominant follicle diameter (mm) at day before ovulation ([6]; 3 g letrozole device 4 days from Day 16, PGF at removal): 11.7 ± 0.59^a mm | heifers with CL of normal diameter at last observation (percent) ([6]; 9 days post-letrozole treatment ovulation): 62.5% | Days from GnRH treatment to ovulation ([6]; Letrozole groups combined): 1.9 ± 0.08 days | Degree of synchrony (residuals of the interval from GnRH to ovulation) ([6]; Letrozole groups combined): 0.24 ± 0.07 | Ovulation failure (percent) ([6]; Letrozole groups combined): 6% | Ovulation in relation to GnRH: Before (percent) ([6]; Letrozole groups combined): 12% | Ovulation in relation to GnRH: Synchronized (percent) ([6]; Letrozole groups combined): 81% | heifers that underwent luteolysis prior to the last observation (percent) ([6]; by 9 days after ovulation): 37.5% | heifers that underwent luteolysis prior to the last observation ([6]; by 9 days after ovulation, number of 48 heifers): 18 | Proportion that ovulated (heifers/treated) [6, 7]: 42/48 | Proportion that ovulated (percent) [6, 7]: 87.1% | Ovulation failure ([6]; Letrozole groups combined): 3 | Ovulation in relation to GnRH: Before ([6]; Letrozole groups combined): 6 | Ovulation in relation to GnRH: Synchronized ([6]; Letrozole groups combined): 39 | Ovulation failure ([6]; treatment initiated on Day 0): 0 | Ovulation in relation to GnRH: Before ([6]; treatment initiated on Day 0): 0 | Ovulation in relation to GnRH: Synchronized ([6]; treatment initiated on Day 0): 10 | Ovulation failure ([6]; treatment initiated on Day 4): 0 | Ovulation in relation to GnRH: Before ([6]; treatment initiated on Day 4): 3 | Ovulation in relation to GnRH: Synchronized ([6]; treatment initiated on Day 4): 7 | Ovulation failure ([6]; treatment initiated on Day 8): 1 | Ovulation in relation to GnRH: Before ([6]; treatment initiated on Day 8): 0 | Ovulation in relation to GnRH: Synchronized ([6]; treatment initiated on Day 8): 7 | Ovulation failure ([6]; treatment initiated on Day 12): 1 | Ovulation in relation to GnRH: Before ([6]; treatment initiated on Day 12): 0 | Ovulation in relation to GnRH: Synchronized ([6]; treatment initiated on Day 12): 10 | Ovulation failure ([6]; treatment initiated on Day 16): 1 | Ovulation in relation to GnRH: Before ([6]; treatment initiated on Day 16): 3 | Ovulation in relation to GnRH: Synchronized ([6]; treatment initiated on Day 16): 5 | estradiol concentrations at device removal compared to respective controls (plasma estradiol; Group 0 (P=0.02)): lower | estradiol concentrations at device removal compared to respective controls (plasma estradiol; Group 4 (P=0.05)): lower | estradiol concentrations at device removal compared to respective controls (plasma estradiol; Group 8 (P=0.1)): tended to be lower | estradiol concentrations at device removal compared to respective controls (plasma estradiol; Group 12 (P=0.9)): not different from Day 12 controls | estradiol concentration at device removal (average) (plasma estradiol; all letrozole-treated groups): 2.1 ± 0.24 pg/mL

CC(C)(C#N)c1cc(Cn2cncn2)cc(C(C)(C)C#N)c1 [Anastrozole, anastrozole]
dose at which estradiol synthesis was reduced to that of non-FSH-stimulated cells (bovine granulosa cells): 200 ng/mL | concentration of estradiol compared with negative control (no FSH stimulation) (bovine granulosa cells): did not differ from that of the negative control | IC50 [3]: 0.82 nM
